Results: US9115169B2, “Method of treating tumors” (Lytix Biopharma AS, priority 2000, dated 2015)
In brackets after ≈: the same amount, converted by molar mass. Where two headings read alike, the source gives them in different places. *1 amine or outer side, *2 acyl side, *3 side chain or, on linkers, in order; H or OH if unused. Where a SMILES comes first, the peptide text is derived from it. [ ]: non-standard residue; d: D form. The star is where a group is joined. Ethylenediamine = C(CN[*:2])N[*:1]; βNA = c1ccc2cc(N*)ccc2c1; Cbz = O=C(OCc1ccccc1)*; OBn = c1ccc(CO*)cc1

What was measured:
[1] = system: MRSE ATCC 27626
[2] = system: Staphylococcus aureus ATCC 25923
[3] = system: Escherichia coli ATCC 25922
[4] = system: MRSA ATCC 33591
[5] = system: Escherichia coli ATCC 25922; remark: listed apart in the source
[6] = system: Staphylococcus aureus ATCC 25923; remark: listed apart in the source
[7] = Table 1, peptide amides, value outside brackets

MIC S. aureus ([2]; ATCC 25923) | MIC E. coli ([3]; ATCC 25922) | Structure (SMILES) | MBC E. coli ([5]; ATCC 25922) | MBC S. aureus ([6]; ATCC 25923) | other results
37.5 µg/mL (≈ 88.8 µM) | >300 µg/mL | NCCCC[C@H](N)C(=O)N[C@@H](Cc1c[nH]c2ccccc12)C(=O)OCc1ccccc1 [KW-Obzl] (H-Lys-Trp-OBn; N-terminus assumed) | – | – | MIC MRSE ([1]; ATCC 27626): 25 µg/mL (≈ 59.2 µM); Minimum inhibitory concentration MRSE ([1]; ATCC 27626): 25 µg/mL (≈ 59.2 µM); Minimum inhibitory concentration S. aureus ([2]; ATCC 25923): 37.5 µg/mL (≈ 88.8 µM); Minimum inhibitory concentration E. coli ([3]; ATCC 25922): >300 µg/mL; MIC MRSA ([4]; ATCC 33591): 37.5 µg/mL (≈ 88.8 µM); Minimum inhibitory concentration MRSA ([4]; ATCC 33591): 37.5 µg/mL (≈ 88.8 µM)
50 µg/mL (≈ 93.2 µM) | >200 (>200) μg/ml | N=C(N)NCCC[C@H](N)C(=O)N[C@@H](Cc1c[nH]c2ccccc12)C(=O)NCCNC(=O)OCc1ccccc1 [RW DaeZ, H-Arg-Trp-Dae-Z] (H-Arg-Trp-{Ethylenediamine-Cbz}) | >200 (>200) μg/ml | 75 µg/mL (≈ 140 µM) | –
>300.0 µg/mL | >300.0 µg/mL | COC(=O)[C@H](Cc1c[nH]c2ccccc12)NC(=O)[C@@H](N)CCCNC(=N)N [RW-OMe] (H-Arg-Trp-OMe; N-terminus assumed) | – | – | MIC MRSE ([1]; ATCC 27626): 200.0 µg/mL (≈ 534 µM); MIC MRSA ([4]; ATCC 33591): >300.0 µg/mL
20 µg/mL (≈ 23.3 µM) | – | N=C(N)NCCC[C@H](NC(=O)[C@H](Cc1c[nH]c2ccccc12)NC(=O)[C@H](CCCNC(=N)N)NC(=O)[C@H](Cc1c[nH]c2ccccc12)NC(=O)[C@@H](N)CCCNC(=N)N)C(N)=O [RWRWR] (H-RWRWR-NH2) | 100 µg/mL (≈ 117 µM) | 20 µg/mL (≈ 23.3 µM) | –
>100 µg/mL | >100 µg/mL | N=C(N)NCCC[C@H](NC(=O)[C@H](Cc1c[nH]c2ccccc12)NC(=O)[C@@H](N)CCCNC(=N)N)C(N)=O [RWR] (H-Arg-Trp-Arg-NH2; N-terminus assumed) | >100 µg/mL | >100 µg/mL | –
10 µg/mL (≈ 14.2 µM) | >100 µg/mL | N=C(N)NCCC[C@H](NC(=O)[C@H](Cc1c[nH]c2ccccc12)NC(=O)[C@H](Cc1c[nH]c2ccccc12)NC(=O)[C@@H](N)CCCNC(=N)N)C(N)=O [RWWR] (H-RWWR-NH2; N-terminus assumed) | >100 µg/mL | >100 µg/mL | –
7.5 µg/mL (≈ 7.18 µM) | 10 µg/mL (≈ 9.58 µM) | N=C(N)NCCC[C@H](NC(=O)[C@H](CCCNC(=N)N)NC(=O)[C@H](Cc1c[nH]c2ccccc12)NC(=O)[C@H](Cc1c[nH]c2ccccc12)NC(=O)[C@H](Cc1c[nH]c2ccccc12)NC(=O)[C@@H](N)CCCNC(=N)N)C(N)=O [RWWWRR] (H-RWWWRR-NH2) | 15 µg/mL (≈ 14.4 µM) | 10 µg/mL (≈ 9.58 µM) | –
37.5 µg/mL (≈ 83.2 µM) | >300 µg/mL | N=C(N)NCCC[C@H](N)C(=O)N[C@H](Cc1c[nH]c2ccccc12)C(=O)OCc1ccccc1 [Rw-OBzl] (H-Arg-[dW]-OBn; N-terminus assumed) | – | – | MIC MRSE ([1]; ATCC 27626): 25 µg/mL (≈ 55.5 µM); MIC MRSA ([4]; ATCC 33591): 37.5 µg/mL (≈ 83.2 µM)
75 to 100 µg/mL | >100 µg/mL | N=C(N)NCCC[C@H](NC(=O)[C@H](CCCNC(=N)N)NC(=O)[C@@H](N)Cc1c[nH]c2ccccc12)C(=O)N[C@@H](Cc1c[nH]c2ccccc12)C(N)=O [WRRW] (H-WRRW-NH2; N-terminus assumed) | >100 µg/mL | >100 µg/mL | –
75 µg/mL (≈ 137 µM) | >100 µg/mL | N=C(N)NCCC[C@H](NC(=O)[C@@H](N)Cc1c[nH]c2ccccc12)C(=O)N[C@@H](Cc1c[nH]c2ccccc12)C(N)=O [WRW] (H-Trp-Arg-Trp-NH2; N-terminus assumed) | >100 µg/mL | 100 µg/mL (≈ 183 µM) | –
37.5 µg/mL (≈ 83.2 µM) | >300 µg/mL | N=C(N)NCCC[C@@H](N)C(=O)N[C@@H](Cc1c[nH]c2ccccc12)C(=O)OCc1ccccc1 [rW-Obzl] (H-[dR]-Trp-OBn; N-terminus assumed) | – | – | MIC MRSE ([1]; ATCC 27626): 25 µg/mL (≈ 55.5 µM); MIC MRSA ([4]; ATCC 33591): 50 µg/mL (≈ 111 µM)

The next lines start with the compound.

Structure (SMILES) | MIC S. aureus ([2]; ATCC 25923) | MIC E. coli ([3]; ATCC 25922) | MBC E. coli ([5]; ATCC 25922) | MBC S. aureus ([6]; ATCC 25923) | other results
C[C@H](N)C(=O)N[C@@H](CCCNC(=N)N)C(=O)OCc1ccc(-c2ccccc2)cc1 [AROBip] | – | – | – | – | Minimum inhibitory concentration MRSE ([1]; ATCC 27626): 25 µg/mL (≈ 60.8 µM); Minimum inhibitory concentration S. aureus ([2]; ATCC 25923): 100 µg/mL (≈ 243 µM); Minimum inhibitory concentration E. coli ([3]; ATCC 25922): 300 µg/mL (≈ 729 µM); Minimum inhibitory concentration MRSA ([4]; ATCC 33591): 37.5 µg/mL (≈ 91.1 µM)
N=C(N)NCCC[C@H](NC(=O)[C@@H](N)Cc1ccc(-c2ccccc2)cc1)C(=O)OCc1ccc(-c2ccccc2)cc1 [BipROBip] | – | – | – | – | Minimum inhibitory concentration MRSE ([1]; ATCC 27626): 5.0 µg/mL (≈ 8.87 µM); Minimum inhibitory concentration S. aureus ([2]; ATCC 25923): 5.0 µg/mL (≈ 8.87 µM); Minimum inhibitory concentration E. coli ([3]; ATCC 25922): 50 µg/mL (≈ 88.7 µM); Minimum inhibitory concentration MRSA ([4]; ATCC 33591): 5.0 µg/mL (≈ 8.87 µM)
N=C(N)NCCC[C@H](NC(=O)C1CCCCC1)C(=O)N[C@@H](Cc1c[nH]c2ccccc12)C(=O)OCc1ccccc1 [Chx RW OBz, Chx-Arg-Trp-OBzl] | 75 (75) μg/ml | 200 (>200) μg/ml | 200 (>200) μg/ml | 75 (75) μg/ml | –
COC(=O)[C@H](CCCNC(=N)N)NC(=O)[C@H](Cc1c[nH]c2ccccc12)NC(=O)C1CCCCC1 [Chx WR OMe, Chx-Trp-Arg-OMe] | >200 (>200) μg/ml | >200 (>200) μg/ml | >200 (>200) μg/ml | >200 (>200) μg/ml | –
N=C(N)NCCC[C@H](NC(=O)[C@@H](N)Cc1ccccc1)C(=O)OCc1ccc(-c2ccccc2)cc1 [FROBip] | – | – | – | – | Minimum inhibitory concentration MRSE ([1]; ATCC 27626): 5 µg/mL (≈ 10.3 µM); Minimum inhibitory concentration S. aureus ([2]; ATCC 25923): 12.5 µg/mL (≈ 25.6 µM); Minimum inhibitory concentration E. coli ([3]; ATCC 25922): 100 µg/mL (≈ 205 µM); Minimum inhibitory concentration MRSA ([4]; ATCC 33591): 12.5 µg/mL (≈ 25.6 µM)
N=C(N)NCCC[C@H](NC(=O)Cc1c[nH]c2ccccc12)C(=O)N[C@@H](Cc1c[nH]c2ccccc12)C(=O)NCCNC(=O)OCc1ccccc1 [Ind RW DaeZ, Ind-Arg-Trp-Dae-Z] | 75 (75) μg/ml | >200 (>200) μg/ml | >200 (>200) μg/ml | 75 (75) μg/ml | –
N=C(N)NCCC[C@H](NC(=O)Cc1c[nH]c2ccccc12)C(=O)N[C@@H](Cc1c[nH]c2ccccc12)C(=O)OCc1ccccc1 [Ind RW OBz, Ind-Arg-Trp-OBzl] | 20 (20) μg/ml | >200 (>200) μg/ml | >200 (>200) μg/ml | 20 (20) μg/ml | –
COC(=O)[C@H](CCCNC(=N)N)NC(=O)[C@H](Cc1c[nH]c2ccccc12)NC(=O)Cc1c[nH]c2ccccc12 [Ind WR OMe, Ind-Trp-Arg-OMe] | >200 (>200) μg/ml | >200 (>200) μg/ml | >200 (>200) μg/ml | >200 (>200) μg/ml | –
NCCCC[C@H](N)C(=O)N[C@@H](Cc1ccccc1)C(=O)OCc1ccccc1 [KF-Obzl] | 300 µg/mL (≈ 782 µM) | >300 µg/mL | – | – | MIC MRSE ([1]; ATCC 27626): 150 µg/mL (≈ 391 µM); MIC MRSA ([4]; ATCC 33591): 300 µg/mL (≈ 782 µM)
N=C(N)NCCC[C@H](N)C(=O)N[C@@H](Cc1c[nH]c2ccccc12)C(=O)Nc1ccc2ccccc2c1 [RWβNA] (H-Arg-Trp-βNA) | – | – | – | – | Minimum inhibitory concentration MRSE ([1]; Table 9): 12.5 µg/mL (≈ 25.7 µM); Minimum inhibitory concentration S. aureus ([2]; Table 9): 12.5 µg/mL (≈ 25.7 µM); Minimum inhibitory concentration E. coli ([3]; Table 9): 100 µg/mL (≈ 206 µM); Minimum inhibitory concentration MRSA ([4]; Table 9): 12.5 µg/mL (≈ 25.7 µM)
N=C(N)NCCC[C@H](NC(=O)[C@H](Cc1c[nH]c2ccccc12)NC(=O)[C@H](CCCNC(=N)N)NC(=O)[C@@H](N)Cc1c[nH]c2ccccc12)C(N)=O [WRWR] (H-WRWR-NH2; N-terminus assumed) | – | – | – | – | MBC E. coli ([5]; Table 1, peptide amides): >100 µg/mL; MIC S. aureus [2, 7]: 100 µg/mL (≈ 142 µM); MBC S. aureus [6, 7]: >100 µg/mL; MIC E. coli [3, 7]: >100 µg/mL
